We go through twelve compounds from article PMC11314199, “Design, Synthesis, and Biological Evaluations of Novel Thiazolo[4,5-d]pyrimidine Corticotropin Releasing Factor (CRF) Receptor Antagonists as Potential Treatments for Stress Related Disorders and Congenital Adrenal Hyperplasia (CAH)” (Molecules, 2024).

Like-named read-outs stand apart in the source and are kept apart here.

Assay [1] concerns the target T1, human CRF1 receptors (Homo sapiens, UniProt P34998).
T1 construct: expressed in transfected cells
T1 sequence (P34998 24-415): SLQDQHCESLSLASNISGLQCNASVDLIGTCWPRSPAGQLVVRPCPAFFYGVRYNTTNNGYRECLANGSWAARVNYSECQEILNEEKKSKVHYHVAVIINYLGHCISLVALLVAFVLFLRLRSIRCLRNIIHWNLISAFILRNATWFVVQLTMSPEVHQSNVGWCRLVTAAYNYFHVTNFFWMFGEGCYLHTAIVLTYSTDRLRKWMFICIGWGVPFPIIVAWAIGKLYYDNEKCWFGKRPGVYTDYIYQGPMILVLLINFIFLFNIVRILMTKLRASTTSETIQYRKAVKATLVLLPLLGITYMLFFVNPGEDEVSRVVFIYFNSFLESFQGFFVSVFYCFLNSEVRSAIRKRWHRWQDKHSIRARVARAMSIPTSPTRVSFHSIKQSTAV
Put plainly: Primary screening: inhibition of specific [125I]-Tyr0 sauvagine binding at a single concentration of 100 nM. The conditions noted are these: 100 nM test compound; membranes from HEK 293 cells stably expressing CRF1 receptors. The method, then: An investigation of the specific binding was carried out in membrane homogenates extracted from human embryonic kidney (HEK 293) cells stably expressing CRF1 receptors, a standard methodology previously detailed in several of our published works. This experimental approach closely adheres to the original Gkountelias et al. procedure.
The CRF1 receptor binding affinities for final target compounds 1–23 were evaluated. First, the ability of the entire test compounds to inhibit the specific binding of the radiolabelled ligand [^125I]-Tyr^0 sauvagine to membranes from HEK 293 cells stably expressing the CRF1 receptors was evaluated at a single concentration of 100 nM.
Figure 5 % inhibition of [^125I]-Try^0 sauvagine-specific binding by 100 nM of test compounds on membranes from HEK293 stably expressing human CRF1 receptors. In the absence of the test compound, the inhibition is 0%.
In this protocol, a radiolabeled agonist, which is [^125I]-Tyr^0-sauvagine is used. The cell culture medium that was used to grow these cells consisted of DMEM/F12 (1:1) supplemented with 10% bovine calf serum, 3.15 g/L glucose, and […] of the antibiotic geneticin. The cells were then incubated at a temperature of 37 °C with 5% CO2. After a suitable time was given to grow the expected number of cells to the required cell density, the cells were washed with phosphate-buffered saline (PBS) at a neutral pH of 7.2–7.3. This was followed by treatment with 2 mM EDTA containing PBS (PBS/EDTA). The suspension of cells was pitted under centrifugation at a speed of 1000× g for a period of 5 min, after which the resulting pellets were allowed to be homogenized in 1.5 mL of buffer H with the following composition: 20 mM HEPES, 10 mM MgCl2, 2 mM EGTA, 0.2 mg/mL bacitracin antibiotic, and 0.93 mg/mL aprotinin at pH 7.2 at 4 °C. The homogenizer used was a Janke & Kunkel IKA Ultra Turrax T25 homogenizer (IKA Werke GmbH & Co. KG, Staufen, Germany). The homogenates were then put into a centrifuge to be centrifuged at a speed of 16,000× g, for a period of 10 min, at 4 °C. The resulting membrane pellets were again suspended in a homogenizer in 1 mL of buffer B, which is buffer H containing BSA (0.1%) at a pH of 7.2 at 20 °C. After that, the membrane suspensions were diluted using buffer B and 50 μL aliquots of the suspensions and 20–25 pM of the radiolabeled ligand [^125I]-Tyr^0sauvagine with (test) and then without (positive control) the compounds to be evaluated at a single concentration of 100 nM.

The target of assay [2] is T1, human CRF1 receptors. Description: Competition binding of [125I]-Tyr0 sauvagine under equilibrium conditions (secondary assay). The conditions noted are these: [125I]-Tyr0 sauvagine competition, HEK 293 membranes expressing CRF1 receptors. The method, then:
In the second assay, the inhibitory effects measured by the lead compounds were compared to those of the standard drug antalarmin.
Figure 6 Competitive binding isotherms of compounds 2, 5, and 14 (a), compounds 10 and 23 (b), compounds 19 and 20 (c) and 21 and 22 (d) to human CRF1 receptors. Antalarmin was used as a standard drug.
In this competitive binding assay, different and increasing concentrations of the test compounds were used. The final volume of the tubes was adjusted to 0.2 mL using buffer B (the composition mentioned earlier). The test mixtures were then incubated at a temperature of 21 °C for a period of two hours. Then it was filtered through presoaked Whatman 934AH filter papers (in a solution of 0.3% polyethylene imine for 1 h at a temperature of 4 °C). The filter papers were then washed with a solution of 0.5 mL of ice-cold PBS containing 0.01% Triton X-100, and the washing process was repeated three times at pH 7.1. To measure the radioactivity, a gamma radiation counter was utilized. The quantity of membranes used was adjusted to make sure that the specific binding is always equal to or less than 10% of the total concentration of the added radiolabeled sauvagine. The specific [^125I]-Tyr^0-sauvagine binding was defined as the total binding minus the non-specific binding in the presence of 1000 nM of the standard antagonist Antalarmin. Non-linear regression analysis was used for data analysis, and Log IC50 values for the test compounds in comparison to the standard antagonist antalarmin were calculated by fitting the data from the competition studies into a one-site competition model. The statistical analysis was performed using Prism 4.0 (GraphPad Software, San Diego, CA, USA).
Statistical analysis was performed using Prism 4.0 (Graph Pad Software, San Diego, CA, USA). Non-linear regression analysis was used in the competitive binding studies. Log IC50 values were calculated by fitting the data from the competition studies to a one-site competition model.

Another assay deals with CRF1R. Also on record: method as in PMID 7846062. The conditions noted are these: cited from earlier work.

As for `CCCC(CCC)Nc1nc(C)nc2c1sc(=NC)n2-c1ccc(C)cc1C` [Compound 19, 7-(N-Heptan-4-yl)amino-2-(methylimino)-5-methyl-3-(2,4-dimethylphenyl)-2,3-dihydrothiazolo[4,5-d]pyrimidine], the inhibition (commonly how much of the control response was suppressed) at 0.1 µM at human CRF1 receptors [1] is over 50%. At human CRF1 receptors [2] (read-out: IC50), the concentration for half-maximal inhibition (IC50) (as a rule, the point on the concentration scale where inhibition reaches its midpoint) worked out at 41.1 nM.
The corresponding values for `CCCN(CCC)c1nc(C)nc2c1sc(=NC)n2-c1ccc(OC)cc1C` [Compound 21, 7-(N,N-Dipropylamino)-2-(methylimino)-5-methyl-3-(2-methyl-4-methoxylphenyl)-2,3-dihydrothiazolo[4,5-d]pyrimidine] are over 50% and 13.1 nM.
For `CCCN(CC1CC1)c1nc(C)nc2c1s/c(=N\C)n2-c1ccc(Cl)cc1Cl` [Compound 5, 7-(N-Propyl-N-(cyclopropylmethyl))amino-2-(methylimino)-5-methyl-3-(2,4-dichlorophenyl)-2,3-dihydrothiazolo[4,5-d]pyrimidine], on human CRF1 receptors [1], the “% inhibition of [125I]-Tyr0 sauvagine-specific binding” value (from here on “% inhibition”) is “significantly higher inhibitory effects than compounds 9 and 17”; the inhibition at 0.1 µM was over 50%. Moreover, the concentration for half-maximal inhibition (IC50) at human CRF1 receptors [2] (read-out: IC50) stood at 11.1 nM.
With `CCCN(CCC)c1nc(C)nc2c1sc(=NC)n2-c1ccc(Cl)cc1Cl` [Compound 2, 7-(N,N-Dipropylamino)-2-(methylimino)-5-methyl-3-(2,4-dichlorophenyl)-2,3-dihydrothiazolo[4,5-d]pyrimidine], the inhibition at 0.1 µM on human CRF1 receptors [1] was over 50%. The IC50 was 6.03 nM on human CRF1 receptors [2] (Log IC50 as printed (negative sign), read-out: Log IC50 ± SE (converted)) and 6.1 nM on human CRF1 receptors [2] (read-out: IC50).
`CCCCN(CC)c1nc(C)nc2c1sc(=NC)n2-c1ccc(OC)cc1C` [Compound 20, 7-(N-Butyl-N-ethylamino)-2-(methylimino)-5-methyl-3-(2-methyl-4-methoxylphenyl)-2,3-dihydrothiazolo[4,5-d]pyrimidine] came in with an inhibition at 0.1 µM at human CRF1 receptors [1] of over 50%. At human CRF1 receptors [2] (read-out: IC50), the half-inhibitory concentration (IC50) came to 9.16 nM.
For the compound `CCCCCN(CCCCC)c1nc(C)nc2c1sc(=NC)n2-c1ccc(C(C)C)cc1Br` [Compound 11, 7-(N,N-Dipentylamino)-2-(methylimino)-5-methyl-3-(2-bromo-4-isopropylphenyl)-2,3-dihydrothiazolo[4,5-d]pyrimidine], the “% inhibition” value at human CRF1 receptors [1] is “reduced activity compared to compounds 10 and 13”.
Regarding `CCCCN(CC)c1nc(C)nc2c1c(C)c(C)n2-c1c(C)cc(C)cc1C` [antalarmin, reference compound], on human CRF1 receptors [2] (read-out: IC50), the IC50 came out at 16.6 nM.
With `CN=c1sc2c(N(CCOC)CCOC)nc(C)nc2n1-c1ccc(C(C)C)cc1Br` [Compound 10, 7-(N,N-Bis(2-methoxyethyl)amino)-2-(methylimino)-5-methyl-3-(2-bromo-4-isopropylphenyl)-2,3-dihydrothiazolo[4,5-d]pyrimidine], at human CRF1 receptors [1], the inhibition at 0.1 µM was over 50%. Moreover, on human CRF1 receptors [2] (read-out: IC50), the half-maximal inhibitory concentration (IC50) is 31 nM.
For `CCC(CC)Nc1nc(C)nc2c1sc(=NC)n2-c1ccc(OC)cc1C` [Compound 23, 7-(N-Pentan-3-yl)amino-2-(methylimino)-5-methyl-3-(2-methyl-4-methoxylphenyl)-2,3-dihydrothiazolo[4,5-d]pyrimidine] the same measures were over 50% and 111 nM.
Take Corticotropin-releasing factor [CRF]: the “binding affinity to CRF1R relative to binding to CRF2R” value with CRF1R is reported as “almost eight times higher”.
With `CCCCN(CC)c1nc(C)nc2c1sc(=NC)n2-c1ccc(C)cc1C` [Compound 14, 7-(N-Butyl-N-ethylamino)-2-(methylimino)-5-methyl-3-(2,4-dimethylphenyl)-2,3-dihydrothiazolo[4,5-d]pyrimidine], the inhibition at 0.1 µM at human CRF1 receptors [1] is over 50%. The IC50 on human CRF1 receptors [2] (read-out: IC50) worked out at 144 nM.
For `CCCN(CC1CC1)c1nc(C)nc2c1s/c(=N\C)n2-c1ccc(OC)cc1C` [Compound 22, 7-(N-Propyl-N-(cyclopropylmethyl))amino-2-(methylimino)-5-methyl-3-(2-methyl-4-methoxylphenyl)-2,3-dihydrothiazolo[4,5-d]pyrimidine], at human CRF1 receptors [1], the “% inhibition” value is “significantly higher inhibitory effects than compounds 9 and 17”; the inhibition at 0.1 µM was over 50%. In addition, the IC50 on human CRF1 receptors [2] (read-out: IC50) amounted to 91.6 nM.
